Format in all cases: biochemical
Assay [1] has as its target T1, human MMP-13 (amino acids 103-268) (Homo sapiens, UniProt P45452).
T1 construct: human MMP-13 (amino acids 103-268); made in house
Kind of assay: MMP dose response assay for determining IC50, MMP-13. The note with it: recombinant enzyme, fluorescent-quench substrate 100 nM. The procedure: (§1) MMP Dose Response Assay for Determining IC50
(§2) The following method was used for determining IC50 values of different inhibitor compounds against multiple MMP enzymes. Frozen stocks of recombinantly produced MMPs were prepared in assay buffer (50 mM HEPES pH 7.4, 10 mM CaCl2, 0.05% Brij-35). The following domains were used to produce catalytically active version of the indicated MMP enzymes, human MMP-1 (amino acids 100-262), human MMP-2 (amino acids 1-660), human MMP-3 (amino acids 100-265), human MMP-9 (amino acids 107-446), human MMP-13 (amino acids 103-268), and rat MMP-9 (amino acids 108-446). Enzyme concentrations in the assay were determined empirically and set such that proteolytic activity was maintained in a linear range over the time-course of the experiment. Diluted enzymes were mixed with various test compounds that had been pre-diluted into assay buffer to establish concentration curves ranging from 10^−5 M to 10^−12 M. Compounds were diluted into assay buffer that contained an appropriate concentration of DMSO to maintain this at a constant in all wells. Each concentration for each test compound was tested in triplicate. MMP enzymes were equilibrated with compounds for 1 hour at room temperature, then a fluorescent-quench substrate (Acetyl-Cys(Eu)-Pro-Leu-Gly-Leu-Lys-(QSY7)-Ala-Arg-amide) was added to a final concentration of 100 nM. Following a 15 minute room temperature incubation, the assay plate was read on an EnVision plate reader using the following parameters: excitation wavelength 340 nM, emission wavelength 615 nM, number of flashes 100, delay before reading 300 milliseconds. Data was analyzed by first calculating average background value from wells that contained only substrate, and this value was subtracted from the entire plate. The 100%, or maximum value, was determined by averaging control wells that contained enzyme, substrate and DMSO. For each well, the percent of control was calculated by dividing the well value by the average DMSO value obtained above.
(§3) Additionally, compounds 27, 3, 65, 66, and 97 were tested in vitro for MMP-3, MMP-9 (rat), and MMP-13 antagonism.

Assay [2] addresses T2, human MMP-9 (amino acids 107-446) (Homo sapiens, UniProt P14780).
T2 construct: human MMP-9 (amino acids 107-446); made in house
The assay can be described thus: MMP dose response assay for determining IC50, MMP-9. The note with it: recombinant enzyme, fluorescent-quench substrate 100 nM; read-out: MMP-9. Summed up:
(§4)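 Recombinant enzymes in 50 mM HEPES pH 7.4, 10 mM CaCl2, 0.05% Brij-35, at empirically set levels keeping activity linear, preincubated 1 h at room temperature with compound in triplicate. Fluorescence-quench peptide substrate (Eu/QSY7) added at 100 nM final. Background-subtracted signal expressed as percent of DMSO control for IC50.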

Assay [3] addresses T3, human MMP-3 (amino acids 100-265) (Homo sapiens, UniProt P08254).
T3 construct: human MMP-3 (amino acids 100-265); made in house
The assay can be described thus: MMP dose response assay for determining IC50, MMP-3. The settings on record: recombinant enzyme, fluorescent-quench substrate 100 nM. Here is the method:
as §1, §2, §3

The target of assay [4] is T4, human MMP-1 (amino acids 100-262) (Homo sapiens, UniProt P03956).
T4 construct: human MMP-1 (amino acids 100-262); made in house
T4 sequence (P03956 100-262): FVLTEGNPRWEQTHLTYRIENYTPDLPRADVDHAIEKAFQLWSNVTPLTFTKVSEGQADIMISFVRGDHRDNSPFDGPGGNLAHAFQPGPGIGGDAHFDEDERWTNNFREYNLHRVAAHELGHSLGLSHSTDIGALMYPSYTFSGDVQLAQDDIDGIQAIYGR
Kind of assay: MMP dose response assay for determining IC50, MMP-1. The note with it: recombinant catalytic domain, fluorescent-quench substrate 100 nM. A digest of the protocol:
as §4

Assay [5] addresses T5, rat MMP-9 (amino acids 108-446) (Rattus norvegicus, UniProt P50282).
T5 construct: rat MMP-9 (amino acids 108-446); made in house
Kind of assay: MMP dose response assay for determining IC50, rat MMP-9. The note with it: rat enzyme. The procedure: as §1
as §2, with “Diluted enzymes were mixed with various test compounds that had been pre-diluted into assay buffer to establish concentration curves ranging from 10^−5 M to 10^−12 M. Compounds were diluted into assay buffer that contained an appropriate concentration of DMSO to maintain this at a constant in all wells. Each concentration for each test compound was tested in triplicate. MMP enzymes were equilibrated with compounds for 1 hour at room temperature, then a fluorescent-quench substrate (Acetyl-Cys(Eu)-Pro-Leu-Gly-Leu-Lys-(QSY7)-Ala-Arg-amide) was added to a final concentration of 100 nM.” left out, “For each well, the percent of control was calculated by dividing the well value by the average DMSO value obtained above.” left out

The target of assay [6] is T6, human MMP-2 (amino acids 1-660) (Homo sapiens, UniProt P08253).
T6 construct: human MMP-2 (amino acids 1-660); made in house
T6 sequence (P08253 110-660): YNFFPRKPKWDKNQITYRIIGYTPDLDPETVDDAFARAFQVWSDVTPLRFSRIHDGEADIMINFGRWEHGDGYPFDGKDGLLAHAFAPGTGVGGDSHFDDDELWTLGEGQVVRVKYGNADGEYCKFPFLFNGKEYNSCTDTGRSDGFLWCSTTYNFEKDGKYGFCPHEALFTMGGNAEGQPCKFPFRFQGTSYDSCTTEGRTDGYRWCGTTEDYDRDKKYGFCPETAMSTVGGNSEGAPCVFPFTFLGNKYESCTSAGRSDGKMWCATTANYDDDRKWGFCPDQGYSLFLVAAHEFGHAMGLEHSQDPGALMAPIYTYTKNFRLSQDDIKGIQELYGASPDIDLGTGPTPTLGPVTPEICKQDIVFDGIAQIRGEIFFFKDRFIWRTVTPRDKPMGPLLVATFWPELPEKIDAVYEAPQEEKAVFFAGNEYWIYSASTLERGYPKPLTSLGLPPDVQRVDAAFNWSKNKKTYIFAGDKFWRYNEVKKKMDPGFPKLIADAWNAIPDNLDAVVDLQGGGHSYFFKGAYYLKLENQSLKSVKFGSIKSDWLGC
Kind of assay: MMP dose response assay for determining IC50, MMP-2. The settings on record: recombinant enzyme, fluorescent-quench substrate 100 nM; read-out: MMP-2. A digest of the protocol:
as §4

For seven compounds, IC50 results are on record in patent publication US20080085893A1, “MATRIX METALLOPROTEASE INHIBITORS” (priority 2006, published 2008).

Where “and” joins values, the source holds several entries; their conditions need not be identical. Equal values may be shown once.

T3 sequence (P08254 100-265): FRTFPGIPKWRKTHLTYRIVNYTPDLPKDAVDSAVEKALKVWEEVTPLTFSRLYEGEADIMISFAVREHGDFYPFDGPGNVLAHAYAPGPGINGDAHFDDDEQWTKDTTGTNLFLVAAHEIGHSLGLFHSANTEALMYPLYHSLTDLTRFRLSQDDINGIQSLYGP
T2 sequence (P14780 107-446): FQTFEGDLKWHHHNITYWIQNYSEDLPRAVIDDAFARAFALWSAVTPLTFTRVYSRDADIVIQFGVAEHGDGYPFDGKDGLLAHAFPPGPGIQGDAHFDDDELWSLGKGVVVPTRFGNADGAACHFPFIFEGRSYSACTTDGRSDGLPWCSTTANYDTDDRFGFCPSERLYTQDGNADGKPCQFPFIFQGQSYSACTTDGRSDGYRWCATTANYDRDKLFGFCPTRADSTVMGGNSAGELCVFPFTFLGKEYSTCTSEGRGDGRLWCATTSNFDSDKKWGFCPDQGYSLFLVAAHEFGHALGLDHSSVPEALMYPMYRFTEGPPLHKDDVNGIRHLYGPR
T5 sequence (P50282 108-446): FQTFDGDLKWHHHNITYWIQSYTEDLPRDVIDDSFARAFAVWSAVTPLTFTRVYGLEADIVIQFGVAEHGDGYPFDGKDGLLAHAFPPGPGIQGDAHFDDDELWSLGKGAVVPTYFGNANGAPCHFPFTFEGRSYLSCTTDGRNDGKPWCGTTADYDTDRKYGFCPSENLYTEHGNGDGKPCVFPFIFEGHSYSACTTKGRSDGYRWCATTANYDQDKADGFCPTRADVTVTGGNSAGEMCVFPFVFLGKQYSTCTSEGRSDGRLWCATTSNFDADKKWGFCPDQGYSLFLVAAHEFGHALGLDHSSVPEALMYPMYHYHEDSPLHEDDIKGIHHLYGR

As to `CS(=O)(=O)N(C[C@@H](C(=O)NO)N1CCOCC1)c1ccc(Oc2ccc(C(F)(F)F)cc2)cc1` [Example 3, N-Hydroxy (2S)-2-(morpholin-4-yl)-3-{N-[4-(4-trifluoromethylphenoxy)phenyl],N-methanesulfonylamino}propionamide], the IC50 was 30.5 nM and 56.1 nM in assay [1]; 4.06 nM and 3.53 nM and 2.37 nM and 2.76 nM and 7.64 nM and 2.89 nM and 2.08 nM and 2.79 nM and 18.4 nM and 7.46 nM in assay [2]; 63.7 nM and 105 nM in assay [3].

In the case of `Cc1ccc(Oc2ccc(N(C[C@@H](C(=O)NO)N3CCOCC3)S(C)(=O)=O)cc2)cc1` [Example 27, N-Hydroxy (2S)-3-{N-[4-(4-methylphenoxy)phenyl],N-methanesulfonylamino}-2-(morpholin-4-yl)propionamide], the IC50 was 3.53 nM in assay [1]; greater than 10000 nM in assay [4]; 1.52 nM and 2.56 nM and 0.93 nM and 4.05 nM and 2.49 nM in assay [2]; 25.8 nM in assay [5]; 136 nM in assay [3]; 3.21 nM and 4.98 nM and 4.19 nM and 10.7 nM and 8.28 nM in assay [6].

As for `Cc1ccc(Oc2ccc(N(C[C@@H](C(=O)NO)N3CCC(O)(c4ccc(Br)cc4)CC3)S(C)(=O)=O)cc2)cc1` [Example 65, N-Hydroxy (2S)-2-[4-(4-bromophenyl)-4-hydroxypiperidin-1-yl]-3-{N-[4-(4-methylphenoxy)phenyl],N-methanesulfonylamino}propionamide], the IC50 is 411 nM in assay [1]; greater than 10000 nM in assay [4]; 0.65 nM in assay [2]; 492 nM in assay [3]; 0.37 nM in assay [6].

For the compound `Cc1ccc(Oc2ccc(N(C[C@H](NCCc3c[nH]c4ccccc34)C(=O)NO)S(C)(=O)=O)cc2)cc1` [Example 66], the IC50 in assay [1] is 847 nM; in assay [4] it was greater than 10000 nM; in assay [2], 2.88 nM; in assay [3], 822 nM; in assay [6], 41.2 nM.

As to `C[C@@H]1CN([C@@H](CN(c2ccc(Oc3ccc(C(F)(F)F)cc3)cc2)S(C)(=O)=O)C(=O)NO)C[C@H](C)O1` [Example 86, N-Hydroxy (2S)-2-(cis-2,6-dimethylmorpholin-4-yl)-3-{N-[4-(4-trifluoromethylphenoxy)phenyl],N-methanesulfonylamino}propionamide], the IC50 was 8040 nM in assay [4]; 0.48 nM and 0.86 nM and 2.08 nM and 2.71 nM and 0.35 nM in assay [2]; 2.69 nM and 4.57 nM and 9.44 nM and 8.32 nM and 3.04 nM in assay [6].

Take `CS(=O)(=O)N(C[C@@H](C(=O)NO)N1CCNC(=O)C1)c1ccc(Oc2ccc(C(F)(F)F)cc2)cc1` [Example 87, N-Hydroxy (2S)-2-(3-oxopiperazin-1-yl)-3-{N-[4-(4-trifluoromethylphenoxy)phenyl],N-methanesulfonylamino}propionamide]: the values for the IC50 in assay [4], in assay [2] and in assay [6] were greater than 10000 nM, 7.94 nM and 19.8 nM, respectively.

Regarding `CC(C)N(C)[C@@H](CN(c1ccc(Oc2ccc(C(F)(F)F)cc2)cc1)S(C)(=O)=O)C(=O)NO` [Example 97, N-Hydroxy (2S)-2-[N-methyl,N-(2-prolyl)amino]-3-{N-[4-(4-trifluoromethylphenoxy)phenyl],N-methanesulfonylamino}propionamide], the IC50 in assay [1] is 12.4 nM; in assay [2], 5.48 nM and 12.2 nM; in assay [5], 175 nM; in assay [3], 218 nM; in assay [6], 17.4 nM and 29.9 nM.
